Laboratory results taken from USRE48711E1, “Apoptosis signal-regulating kinase inhibitors” (Gilead Sciences, Inc., priority 2009, dated 2021).

Each molecule was assayed against ASK1 (Apoptosis Signal-Regulating Kinase 1) (Homo sapiens (Human), UniProt Q99683) (assay: ASK1 (Apoptosis Signal-Regulating Kinase 1) TR-FRET Kinase Assay (Biochemical IC50)). Conditions: TR-FRET, biotin-MBP substrate, 20 min pre-incubation, ATP added as 300 μM solution.
ASK1 (Apoptosis Signal-Regulating Kinase 1), sequence (Q99683 649-946): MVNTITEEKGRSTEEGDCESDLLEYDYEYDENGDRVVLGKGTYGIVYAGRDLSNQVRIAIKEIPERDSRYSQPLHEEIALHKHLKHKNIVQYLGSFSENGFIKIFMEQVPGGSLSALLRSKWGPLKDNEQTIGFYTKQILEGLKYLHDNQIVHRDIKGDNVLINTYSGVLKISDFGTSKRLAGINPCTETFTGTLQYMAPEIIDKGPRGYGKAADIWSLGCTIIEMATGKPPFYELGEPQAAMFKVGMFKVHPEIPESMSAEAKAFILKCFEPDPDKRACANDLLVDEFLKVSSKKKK
With CCc1cncc(-c2ccnc(C(=O)Nc3cccc(-c4nncn4C4CC4)c3)c2)c1 [Example 146, N-(3-(4-cyclopropyl-4H-1,2,4-triazol-3-yl)phenyl)-5-ethyl-3,4′-bipyridine-2′-carboxamide] the IC50 was 0.008 µM.
O=C(Nc1cccc(-c2nncn2C2CC2)c1)c1cc(-c2ccc(C3CC3)cc2)ccn1 [Example 129, N-(3-(4-cyclopropyl-4H-1,2,4-triazol-3-yl)phenyl)-4-(4-cyclopropylphenyl)picolinamide] was tested, and the IC50 was 0.022 µM.
Molecule CN1CCc2ncc(-c3ccnc(C(=O)Nc4cccc(-c5nncn5C5CC5)c4)c3)cc2C1 [Example 173, N-(3-(4-cyclopropyl-4H-1,2,4-triazol-3-yl)phenyl)-4-(6-methyl-5,6,7,8-tetrahydro-1,6-naphthyridin-3-yl)picolinamide] has an IC50 of 0.021 µM.
For CCN1CCN(c2ccnc(C(=O)Nc3cccc(-c4nncn4C4CC4)n3)c2)CC1=O [Example 178, N-(6-(4-cyclopropyl-4H-1,2,4-triazol-3-yl)pyridin-2-yl)-4-(4-ethyl-3-oxopiperazin-1-yl)picolinamide], the IC50 was 0.007 µM.
Molecule Cn1c(-c2ccnc(C(=O)Nc3cccc(-c4nncn4C4CC4)c3)c2)nnc1C1CC1 [Example 255, 4-(5-cyclopropyl-4-methyl-4H-1,2,4-triazol-3-yl)-N-(3-(4-cyclopropyl-4H-1,2,4-triazol-3-yl)phenyl)picolinamide] has an IC50 of 0.685 µM.
O=C(Nc1cccc(-c2nncn2C2CC2)n1)c1cccc(-c2ccc(C3CC3)nc2)n1 [Example 258, 6′-cyclopropyl-N-(6-(4-cyclopropyl-4H-1,2,4-triazol-3-yl)pyridin-2-yl)-2,3′-bipyridine-6-carboxamide] was tested, and the IC50 was 0.852 µM.
O=C(Nc1cccc(-c2nncn2C2CC2)c1)c1cc(-c2ccc(OC3CC3)nc2)ccn1 [Example 104, 6-cyclopropoxy-N-(3-(4-cyclopropyl-4H-1,2,4-triazol-3-yl)phenyl)-3,4′-bipyridine-2′-carboxamide] gave an IC50 of 0.012 µM.
Molecule Cc1ncc(-c2ccnc(C(=O)Nc3cccc(-c4nncn4C4CC4)c3)c2)n1C [Example 73, N-(3-(4-cyclopropyl-4H-1,2,4-triazol-3-yl)phenyl)-4-(1,2-dimethyl-1H-imidazol-5-yl)picolinamide] has an IC50 of 0.011 µM.
Molecule O=C(Nc1cccc(-c2nncn2C2CC2)c1)c1cc(-c2cncc(C(F)(F)F)c2)ccn1 [Example 59, N-(3-(4-cyclopropyl-4H-1,2,4-triazol-3-yl)phenyl)-5-(trifluoromethyl)-3,4′-bipyridine-2′-carboxamide] has an IC50 of 0.044 µM.
COc1ncc(-c2ccnc(C(=O)Nc3cccc(-c4nncn4C4CC4)c3)c2)cn1 [Example 45, N-(3-(4-cyclopropyl-4H-1,2,4-triazol-3-yl)phenyl)-4-(2-methoxypyrimidin-5-yl)picolinamide] showed an IC50 of 0.009 µM.
In the case of Cc1ncccc1-c1ccnc(C(=O)Nc2cccc(-c3nncn3C3CC3)c2)c1 [Example 74, N-(3-(4-cyclopropyl-4H-1,2,4-triazol-3-yl)phenyl)-2-methyl-3,4′-bipyridine-2′-carboxamide], the IC50 is reported as 0.079 µM.
Work on O=C(Nc1cccc(-c2nncn2C2CC2)c1)c1cc(-c2ccc(CC3CC3)nc2)ccn1 [Example 268, N-(3-(4-cyclopropyl-4H-1,2,4-triazol-3-yl)phenyl)-6-(cyclopropylmethyl)-3,4′-bipyridine-2′-carboxamide] yielded an IC50 of 0.013 µM.
With O=C(Nc1cccc(-c2nncn2C2CC2)n1)c1cc(-c2ccc(C3CC3)nc2)ccc1F [Example 224, N-(6-(4-cyclopropyl-4H-1,2,4-triazol-3-yl)pyridin-2-yl)-5-(6-cyclopropylpyridin-3-yl)-2-fluorobenzamide] the IC50 was 0.013 µM.
CS(=O)(=O)N1CCN(c2ccnc(C(=O)Nc3cccc(-c4nncn4C4CC4)c3)c2)CC1 [Example 137, N-(3-(4-cyclopropyl-4H-1,2,4-triazol-3-yl)phenyl)-4-(4-(methylsulfonyl)piperazin-1-yl)picolinamide] gave an IC50 of 0.031 µM.
With O=C(Nc1cccc(-c2nncn2C2CC2)c1)c1cc(-c2ccc(N3CCNC3=O)cc2)ccn1 [Example 105, N-(3-(4-cyclopropyl-4H-1,2,4-triazol-3-yl)phenyl)-4-(4-(2-oxoimidazolidin-1-yl)phenyl)picolinamide] the IC50 was 0.015 µM.
Molecule O=C(Nc1cccc(-c2nncn2C2CCOCC2)c1)c1cc(-c2cccnc2)ccn1 [Example 26, N-(3-(4-(tetrahydro-2H-pyran-4-yl)-4H-1,2,4-triazol-3-yl)phenyl)-3,4′-bipyridine-2′-carboxamide] has an IC50 of 1.97 µM.
With CC(C)(O)c1ccc(-c2ccnc(C(=O)Nc3cccc(-c4nncn4C4CC4)c3)c2)cn1 [Example 165, N-(3-(4-cyclopropyl-4H-1,2,4-triazol-3-yl)phenyl)-6-(2-hydroxypropan-2-yl)-3,4′-bipyridine-2′-carboxamide] the IC50 was 0.005 µM.
For COC(=O)Nc1ccc(-c2ccnc(C(=O)Nc3cccc(-c4nncn4C4CC4)c3)c2)cn1 [Example 23, methyl 2′-(3-(4-cyclopropyl-4H-1,2,4-triazol-3-yl)phenylcarbamoyl)-3,4′-bipyridin-6-ylcarbamate], the IC50 was 0.167 µM.
O=C(Nc1cccc(-c2nncn2C2CC2)c1)c1cc(-n2cnc3ccccc32)ccn1 [Example 37, 4-(1H-benzo[d]imidazol-1-yl)-N-(3-(4-cyclopropyl-4H-1,2,4-triazol-3-yl)phenyl)picolinamide] showed an IC50 of 0.008 µM.
Cn1c(-c2ccnc(C(=O)Nc3cccc(-c4nncn4C4CC4)c3)c2)cnc1-c1ccccc1 [Example 116, N-(3-(4-cyclopropyl-4H-1,2,4-triazol-3-yl)phenyl)-4-(1-methyl-2-phenyl-1H-imidazol-5-yl)picolinamide] was tested, and the IC50 was 0.023 µM.
O=C(Nc1cccc(-c2nncn2C2CC2)c1)c1cc(-c2cnc(C3CC3)cn2)ccn1 [Example 133, N-(3-(4-cyclopropyl-4H-1,2,4-triazol-3-yl)phenyl)-4-(5-cyclopropylpyrazin-2-yl)picolinamide] showed an IC50 of 0.01 µM.
For CC(C)N1CCc2ncc(-c3ccnc(C(=O)Nc4cccc(-c5nncn5C5CC5)c4)c3)cc2C1 [Example 172, N-(3-(4-cyclopropyl-4H-1,2,4-triazol-3-yl)phenyl)-4-(6-isopropyl-5,6,7,8-tetrahydro-1,6-naphthyridin-3-yl)picolinamide], the IC50 was 0.017 µM.
O=C(Nc1cccc(-c2nncn2CC2CC2)c1)c1cc(-c2cccnc2)ccn1 [Example 181, N-(3-(4-(cyclopropylmethyl)-4H-1,2,4-triazol-3-yl)phenyl)-3,4′-bipyridine-2′-carboxamide] gave an IC50 of 0.131 µM.
In the case of O=C(Nc1ccc(F)c(-c2nncn2C2CC2)c1)c1cc(-c2ccc(C3CC3)nc2)ccn1 [Example 147, 6-cyclopropyl-N-(3-(4-cyclopropyl-4H-1,2,4-triazol-3-yl)-4-fluorophenyl)-3,4′-bipyridine-2′-carboxamide], the IC50 is reported as 0.4 µM.
Molecule O=C(Nc1cccc(-c2nncn2C2CC2)c1)c1cc(-c2ccc(F)nc2)ccn1 [Example 93, N-(3-(4-cyclopropyl-4H-1,2,4-triazol-3-yl)phenyl)-6-fluoro-3,4′-bipyridine-2′-carboxamide] has an IC50 of 0.043 µM.
With C[C@@H](C(=O)OC(C)(C)C)n1cnnc1-c1cccc(NC(=O)c2cc(-c3ccc(C4CC4)nc3)ccn2)c1 [Example 222, (S)-tert-butyl 2-(3-(3-(6-cyclopropyl-3,4′-bipyridine-2′-carboxamido)phenyl)-4H-1,2,4-triazol-4-yl)propanoate] the IC50 was 0.079 µM.
O=C(Nc1cccc(-c2nncn2C2CC2)c1F)c1cc(-c2cccnc2)ccn1 [Example 157, N-(3-(4-cyclopropyl-4H-1,2,4-triazol-3-yl)-2-fluorophenyl)-3,4′-bipyridine-2′-carboxamide] gave an IC50 of 0.038 µM.
Work on CCc1ccc(-c2ccnc(C(=O)Nc3ccc(F)c(-c4nncn4C4CC4)c3)c2)cn1 [Example 148, N-(3-(4-cyclopropyl-4H-1,2,4-triazol-3-yl)-4-fluorophenyl)-6-ethyl-3,4′-bipyridine-2′-carboxamide] yielded an IC50 of 0.056 µM.
In the case of O=C(Nc1ccnc(-c2nncn2C2CC2)c1)c1cc(-c2cnc3ccccc3c2)ccn1 [Example 153, N-(2-(4-cyclopropyl-4H-1,2,4-triazol-3-yl)pyridin-4-yl)-4-(quinolin-3-yl)picolinamide], the IC50 is reported as 0.409 µM.
Molecule O=C(Nc1cccc(-c2nncn2C2CC2)c1)c1cc(-c2ccccc2)ccn1 [Example 14, N-(3-(4-cyclopropyl-4H-1,2,4-triazol-3-yl)phenyl)-4-phenylpicolinamide] has an IC50 of 0.279 µM.
O=C(Nc1cccc(-c2nncn2C2CC2)c1)c1cc(-c2cccnc2)ccn1 [Example 15, N-(3-(4-cyclopropyl-4H-1,2,4-triazol-3-yl)phenyl)-3,4′-bipyridine-2′-carboxamide] gave an IC50 of 0.011 µM.
CCc1ncc(-c2ccnc(C(=O)Nc3cccc(-c4nncn4C4CC4)c3)c2)cc1F [Example 138, N-(3-(4-cyclopropyl-4H-1,2,4-triazol-3-yl)phenyl)-6-ethyl-5-fluoro-3,4′-bipyridine-2′-carboxamide] was tested, and the IC50 was 0.008 µM.
For Cc1cc(-c2cccnc2)cc(C(=O)Nc2cccc(-c3nncn3C)c2)n1 [Example 46, 6′-methyl-N-(3-(4-methyl-4H-1,2,4-triazol-3-yl)phenyl)-3,4′-bipyridine-2′-carboxamide], the IC50 was 0.212 µM.
Molecule O=C(Nc1cccc(-c2nncn2C2CC2)c1)c1cc(-c2ccc(C3CC3)nc2)ncn1 [Example 144, N-(3-(4-cyclopropyl-4H-1,2,4-triazol-3-yl)phenyl)-6-(6-cyclopropylpyridin-3-yl)pyrimidine-4-carboxamide] has an IC50 of 0.014 µM.
With O=C(Nc1cc(F)cc(-c2nncn2C2CC2)c1)c1cc(-c2cccnc2)ccn1 [Example 169, N-(3-(4-cyclopropyl-4H-1,2,4-triazol-3-yl)-5-fluorophenyl)-3,4′-bipyridine-2′-carboxamide] the IC50 was 0.157 µM.
Cc1cc(-c2ccc(C3CC3)nc2)cc(C(=O)Nc2cccc(-c3nncn3C3CC3)n2)n1 [Example 233, 6-cyclopropyl-N-(6-(4-cyclopropyl-4H-1,2,4-triazol-3-yl)pyridin-2-yl)-6′-methyl-3,4′-bipyridine-2′-carboxamide] was tested, and the IC50 was 0.014 µM.
